Assay results as given in ChEMBL document CHEMBL5126607, “Discovery and In Vivo Evaluation of ACT-660602: A Potent and Selective Antagonist of the Chemokine Receptor CXCR3 for Autoimmune Diseases” (J Med Chem, 2022).

How the values were obtained:
[1] = target: Voltage-gated inwardly rectifying potassium channel KCNH2 (Homo sapiens, UniProt Q12809); test: Inhibition of hERG expressed in CHO cells by Q patch-clamp method
hERG [2] = target: T1, hERG (Homo sapiens, UniProt Q12809); test: Inhibition of hERG expressed in CHO cells 3 uM at by Q patch-clamp method relative to control; type: toxicity, cell-based; details: CHO cells that express hERG
[3] = target: T2, C-X-C chemokine receptor type 3 (Homo sapiens, UniProt P49682)
T2 sequence (P49682 whole entry): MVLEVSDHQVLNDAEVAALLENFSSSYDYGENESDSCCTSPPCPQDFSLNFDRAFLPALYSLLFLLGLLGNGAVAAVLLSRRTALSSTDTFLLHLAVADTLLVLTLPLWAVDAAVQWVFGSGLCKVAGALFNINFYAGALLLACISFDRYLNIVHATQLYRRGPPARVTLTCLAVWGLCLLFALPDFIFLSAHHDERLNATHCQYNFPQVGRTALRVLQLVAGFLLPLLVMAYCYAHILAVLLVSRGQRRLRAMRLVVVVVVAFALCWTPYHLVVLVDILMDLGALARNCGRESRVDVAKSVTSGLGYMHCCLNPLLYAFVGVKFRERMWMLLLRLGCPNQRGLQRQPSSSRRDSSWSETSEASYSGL
Description: Antagonist activity at recombinant human CXCR3 expressed in human CHO-K1 cells co-expressing Galpha15 incubated for 10 mins by Fluo-4AM dye based FLIPR assay

[4] = target: T2, C-X-C chemokine receptor type 3; remark: listed apart in the source
Description: Antagonist activity at recombinant human CXCR3 in human U2SO cells assessed as reduction in CXCL10-induced beta-arrestin recruitment by TANGO assay

[5] = target: T2, C-X-C chemokine receptor type 3; remark: listed apart in the source
Description: Inhibition of CXCR3 receptor internalization in human venous whole blood incubated for 30 mins by flow cytometer analysis

in vitro = details: human
[6] = Lipophilicity, log D of the compound at pH 7.4; details: buffer
hERG [7] = target: T1, hERG; test: Inhibition of hERG expressed in CHO cells 10 uM at by Q patch-clamp method relative to control
[8] = human, microsomes, 1 µM
in vivo [9] = details: Balb/c, mouse, po, 10 mg/kg
[10] = Fractional unbound plasma concentration in Balb/c mouse at 10 mg/kg, po
in vivo [11] = details: Balb/c, mouse, po, 10 mg/kg; remark: listed apart in the source
in vivo [12] = details: Balb/c, mouse, po, 10 mg/kg; remark: listed apart in the source
[13] = Metabolic stability in Beagle dog hepatocyte assessed as intrinsic clearance measured per 10^6 cells in presence of NADPH regenerating system by LC-MS/MS analysis; details: hepatocytes
in vivo [14] = details: Wistar, rat, po, 2 mg/kg
in vivo [15] = details: Wistar, rat, po, 2 mg/kg; remark: listed apart in the source
[16] = Fractional unbound plasma concentration in Wistar rat at 0.5 mg/kg, iv and 2 mg/kg, po; details: in vivo
in vivo [17] = details: Wistar, rat, po, 2 mg/kg; remark: listed apart in the source
in vivo [18] = details: Wistar, rat, po, 2 mg/kg; remark: listed apart in the source
[19] = Metabolic stability in rat hepatocyte assessed as intrinsic clearance measured per 10^6 cells in presence of NADPH regenerating system by LC-MS/MS analysis; details: hepatocytes
[20] = Fractional unbound plasma concentration in Beagle dog at 0.5 mg/kg, iv and 2 mg/kg, po
[21] = Half life in Wistar rat at 0.5 mg/kg, iv and 2 mg/kg, po; details: in vivo

T1 sequence (Q12809 whole entry): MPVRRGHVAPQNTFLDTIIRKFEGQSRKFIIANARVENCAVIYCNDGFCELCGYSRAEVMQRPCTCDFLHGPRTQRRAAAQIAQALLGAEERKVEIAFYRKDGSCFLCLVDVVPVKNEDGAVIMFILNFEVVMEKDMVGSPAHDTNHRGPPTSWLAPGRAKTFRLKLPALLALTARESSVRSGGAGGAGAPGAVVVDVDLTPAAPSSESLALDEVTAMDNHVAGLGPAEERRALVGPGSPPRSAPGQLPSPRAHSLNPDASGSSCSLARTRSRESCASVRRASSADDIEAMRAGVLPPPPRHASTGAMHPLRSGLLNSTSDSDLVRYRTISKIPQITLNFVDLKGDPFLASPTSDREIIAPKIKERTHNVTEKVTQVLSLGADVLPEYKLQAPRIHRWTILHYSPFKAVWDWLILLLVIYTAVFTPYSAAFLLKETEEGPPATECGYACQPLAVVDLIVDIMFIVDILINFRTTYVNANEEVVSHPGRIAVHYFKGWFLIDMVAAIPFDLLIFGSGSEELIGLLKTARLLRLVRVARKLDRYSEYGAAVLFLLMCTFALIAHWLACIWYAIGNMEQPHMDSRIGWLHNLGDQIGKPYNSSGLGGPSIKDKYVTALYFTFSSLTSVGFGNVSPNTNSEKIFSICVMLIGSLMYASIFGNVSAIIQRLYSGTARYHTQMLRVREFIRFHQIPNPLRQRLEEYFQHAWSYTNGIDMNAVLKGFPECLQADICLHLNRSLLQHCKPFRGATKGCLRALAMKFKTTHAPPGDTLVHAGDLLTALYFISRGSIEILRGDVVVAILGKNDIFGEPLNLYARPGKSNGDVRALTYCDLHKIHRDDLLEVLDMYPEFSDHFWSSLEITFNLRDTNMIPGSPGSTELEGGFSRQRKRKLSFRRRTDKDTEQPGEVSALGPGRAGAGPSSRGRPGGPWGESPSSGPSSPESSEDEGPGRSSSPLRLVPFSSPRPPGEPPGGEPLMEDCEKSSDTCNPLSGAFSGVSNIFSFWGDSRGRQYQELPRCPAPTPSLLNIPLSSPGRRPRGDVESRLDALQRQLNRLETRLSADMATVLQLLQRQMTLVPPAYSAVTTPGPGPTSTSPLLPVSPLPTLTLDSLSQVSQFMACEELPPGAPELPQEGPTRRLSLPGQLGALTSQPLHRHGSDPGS
Voltage-gated inwardly rectifying potassium channel KCNH2, sequence (Q12809 whole entry): as above

IC50 [3] | IC50 [4] | IC50 [5] | Structure (SMILES) | IC50 [1] | further results
– | – | – | CCOc1ncc(-c2nc(C(F)(F)F)sc2N2CCN(C(=O)Cn3cnc(C(F)(F)F)n3)[C@H](C)C2)cn1 | > 6 µM | inhibition at 3 µM (hERG [2]): 31%
– | – | – | CCOc1ncc(-c2nc(C(F)(F)F)sc2N2CCN(C(=O)Cn3ccc4cccnc43)[C@H](C)C2)cn1 | 4.2 µM | –
4.4 nM | 258 nM | 367 nM | CCCc1ncc(-c2nc(C(F)(F)F)sc2N2CCN(C(=O)Cn3nc(C)nc3C)[C@H](C)C2)cn1 | > 20 µM | microsomal CLint at 1 µM (in vitro; microsomes): 80 µL/min/mg
– | – | – | COc1ccc(-c2nc(C(F)(F)F)sc2N2CCN(C(=O)Cn3nc(C)nc3C)[C@H](C)C2)cn1 | > 20 µM | –
1.6 nM | – | – | O=C(Nc1ccccc1N1CCN(C(=O)Cn2cnc3cccnc32)CC1)c1cccc(Cl)c1 | – | –
2.3 nM | 87 nM | 60 nM | CCOc1ncc(-c2nc(C(F)(F)F)sc2N2CCN(C(=O)Cn3nc(C)cc3C)[C@H](C)C2)cn1 | 13 µM | logD [6]: 3.7; microsomal CLint at 1 µM (in vitro; microsomes): 184 µL/min/mg
2.8 nM | 126 nM | 526 nM | C[C@@H]1CN(c2sc(Br)nc2-c2nc3ccccc3[nH]2)CCN1C(=O)Cn1cnc2cccnc21 | 0.34 µM | –
– | – | – | Cc1nc(C)n(CC(=O)N2CCN(c3sc(C(F)(F)F)nc3-c3cnc(C(C)(C)C)nc3)C[C@H]2C)n1 | > 20 µM | –
– | – | – | CCOc1ncc(-c2nc(C(F)(F)F)sc2N2CCN(C(=O)Cn3ncc4cccnc43)[C@H](C)C2)cn1 | 15 µM | –
4.2 nM | – | – | O=C(Nc1cccnc1N1CCN(C(=O)Cn2cnc3cccnc32)CC1)c1cccc(Cl)c1 | – | –
50 nM | 2360 nM | 1150 nM | C[C@@H]1CN(c2sc(CN(C)C)nc2-c2nc3ccccc3[nH]2)CCN1C(=O)Cn1cnc2cccnc21 | 20 µM | inhibition at 10 µM (hERG [7]): 28%; microsomal CLint at 1 µM (in vitro; microsomes): 44 µL/min/mg
– | – | – | Cc1ncc(-c2nc(C(F)(F)F)sc2N2CCN(C(=O)Cn3nc(C)nc3C)[C@H](C)C2)cn1 | > 20 µM | –
3.8 nM | 93 nM | 90 nM | CCOc1ncc(-c2nc(C(F)(F)F)sc2N2CCN(C(=O)Cn3ccc(C(F)(F)F)n3)[C@H](C)C2)cn1 | 5.1 µM | microsomal CLint at 1 µM (in vitro; microsomes): 20 µL/min/mg
3.3 nM | 99 nM | 536 nM | CCOc1ncc(-c2nc(C(F)(F)F)sc2N2CCN(C(=O)Cn3c(=O)oc4ccccc43)[C@H](C)C2)cn1 | 2.2 µM | –
4 nM | 78 nM | 306 nM | Cc1nc(C)n(CC(=O)N2CCN(c3sc(C(F)(F)F)nc3-c3cnc(OC4CCC4)nc3)C[C@H]2C)n1 | > 20 µM | logD [6]: 3.6; microsomal CLint at 1 µM (in vitro; microsomes): 51 µL/min/mg
8.8 nM | 505 nM | 887 nM | CCOc1ccc(-c2nc(C(F)(F)F)sc2N2CCN(C(=O)Cn3nc(C)nc3C)[C@H](C)C2)cn1 | > 20 µM | microsomal CLint at 1 µM (in vitro; microsomes): 66 µL/min/mg
– | – | – | CCOc1ncc(-c2nc(C(F)(F)F)sc2N2CCN(C(=O)Cn3ccc4cnccc43)[C@H](C)C2)cn1 | 0.57 µM | –
53 nM | 6220 nM | 1150 nM | C[C@@H]1CN(c2sc(C3COC3)nc2-c2nc3ccccc3[nH]2)CCN1C(=O)Cn1cnc2cccnc21 | 4.4 µM | microsomal CLint at 1 µM (in vitro; microsomes): 38 µL/min/mg
3.5 nM | 523 nM | 352 nM | Cc1nc(C)n(CC(=O)N2CCN(c3sc(C(F)(F)F)nc3-c3cnc(N4CCCC4)nc3)C[C@H]2C)n1 | > 20 µM | –
4200 nM | – | – | O=C(Cn1cnc2cccnc21)N1CCN(c2ncsc2-c2nc3ccccc3[nH]2)CC1 | – | –
– | – | – | CCc1nc(-c2nc3ccccc3[nH]2)c(N2CCN(C(=O)Cn3cnc4cccnc43)[C@H](C)C2)s1 | – | microsomal CLint at 1 µM (in vitro; liver microsomes): 88 µL/min/mg
– | – | – | CCCc1ncc(-c2nc(C(F)(F)F)sc2N2CCN(C(=O)Cn3cnc4cccnc43)[C@H](C)C2)cn1 | 5.9 µM | inhibition at 10 µM (hERG [7]): 57%

IC50 [3] | IC50 [4] | IC50 [5] | Structure (SMILES) | IC50 [1] | further results
– | – | – | CCOc1ncc(-c2nc(C(F)(F)F)sc2N2CCN(C(=O)CN3C(=O)Cc4ccccc43)[C@H](C)C2)cn1 | 3 µM | –
– | – | – | COCCOc1ncc(-c2nc(C(F)(F)F)sc2N2CCN(C(=O)Cn3cnc4cccnc43)[C@H](C)C2)cn1 | > 20 µM | inhibition at 10 µM (hERG [7]): 17%
2 nM | 162 nM | 289 nM | CCOc1ncc(-c2nc(C(F)(F)F)sc2N2CCN(C(=O)Cn3nccc3C)[C@H](C)C2)cn1 | 5.6 µM | microsomal CLint at 1 µM (in vitro; microsomes): 65 µL/min/mg
3.8 nM | 177 nM | 158 nM | COc1ncc(-c2nc(C(F)(F)F)sc2N2CCN(C(=O)Cn3cnc4cccnc43)[C@H](C)C2)cn1 | > 20 µM | inhibition at 10 µM (hERG [7]): 19%; CLH [8]: 14 µL/min/kg
– | – | – | CCOc1ncc(-c2nc(C(F)(F)F)sc2N2CCN(C(=O)Cn3cnc4ccccc43)[C@H](C)C2)cn1 | 4.7 µM | –
171 nM | > 10000 nM | 3380 nM | C[C@@H]1CN(c2sc(CO)nc2-c2nc3ccccc3[nH]2)CCN1C(=O)Cn1cnc2cccnc21 | 19 µM | –
2 nM | 20 nM | 48 nM | CCOc1ncc(-c2nc(C(F)(F)F)sc2N2CCN(C(=O)Cn3cnc4cccnc43)[C@H](C)C2)cn1 | 13 µM | inhibition at 10 µM (hERG [7]): 44%; Cmax (in vivo [9]): 1800 ng/mL; CLH [8]: 75 µL/min/kg; fraction unbound [10]: 0.008; Tmax (in vivo [11]): 30 min; AUC (in vivo [12]): 1590 ng·h/mL
– | – | – | COc1ncc(-c2nc(C(F)(F)F)sc2N2CCN(C(=O)Cn3nc(C)nc3C)[C@H](C)C2)cn1 | > 20 µM | –
9.7 nM | 745 nM | 994 nM | C[C@@H]1CN(c2sc(C3CC3)nc2-c2nc3ccccc3[nH]2)CCN1C(=O)Cn1cnc2cccnc21 | 0.38 µM | –
3.9 nM | 604 nM | – | CC[C@@H]1CN(c2scnc2-c2nc3ccccc3[nH]2)CCN1C(=O)Cn1cnc2cccnc21 | 0.75 µM | –
– | – | – | COc1ccc(-c2nc(C(F)(F)F)sc2N2CCN(C(=O)Cn3cnc4cccnc43)[C@H](C)C2)cc1 | 8.8 µM | inhibition at 10 µM (hERG [7]): 53%
– | – | – | CCOc1ncc(-c2nc(C(F)(F)F)sc2N2CCN(C(=O)Cn3cc(Cl)cn3)[C@H](C)C2)cn1 | 2.8 µM | –
6.7 nM | 140 nM | 381 nM | C[C@@H]1CN(c2sc(C(F)(F)F)nc2-c2cnc(OCCN(C)C)nc2)CCN1C(=O)Cn1cnc2cccnc21 | > 20 µM | inhibition at 10 µM (hERG [7]): 25%; CLH [8]: 29 µL/min/kg
3.4 nM | 138 nM | 216 nM | Cc1nc(C)n(CC(=O)N2CCN(c3sc(C(F)(F)F)nc3-c3cnc(OC(C)C)nc3)C[C@H]2C)n1 | > 20 µM | hepatocyte CLint [13]: 6.8 µL/min/1e6 cells; AUC (in vivo [14]): 3980 ng·h/mL; Cmax (in vivo [15]): 806 ng/mL; fraction unbound [16]: 0.035; Tmax (in vivo [17]): 30 min; bioavailability (in vivo [18]): 89%; hepatocyte CLint [19]: 2.5 µL/min/1e6 cells; fraction unbound [20]: 0.192; half-life [21]: 108 min; microsomal CLint at 1 µM (in vitro; microsomes): 16 µL/min/mg
3.5 nM | 349 nM | 674 nM | Cc1nc(C)n(CC(=O)N2CCN(c3sc(C(F)(F)F)nc3-c3cnc(C4CC4)nc3)C[C@H]2C)n1 | 13 µM | microsomal CLint at 1 µM (in vitro; microsomes): < 10 µL/min/mg
– | – | – | CCc1ncc(-c2nc(C(F)(F)F)sc2N2CCN(C(=O)Cn3nc(C)nc3C)[C@H](C)C2)cn1 | > 20 µM | –
– | – | – | Cc1ncc(-c2nc(C(F)(F)F)sc2N2CCN(C(=O)Cn3cnc4cccnc43)[C@H](C)C2)cn1 | 15 µM | inhibition at 10 µM (hERG [7]): 40%
30 nM | – | 1440 nM | O=C(Cn1cnc2cccnc21)N1CCN(c2scnc2-c2nc3ccccc3[nH]2)CC1 | – | –
4.2 nM | 608 nM | 860 nM | Cc1nc(C)n(CC(=O)N2CCN(c3sc(C(F)(F)F)nc3-c3ccc(C(F)(F)F)nc3)C[C@H]2C)n1 | 5.2 µM | microsomal CLint at 1 µM (in vitro; microsomes): < 10 µL/min/mg
67 nM | 8030 nM | – | C[C@H]1CN(c2scnc2-c2nc3ccccc3[nH]2)CCN1C(=O)Cn1cnc2cccnc21 | 0.63 µM | –
9 nM | 1050 nM | 1060 nM | Cc1nc(-c2nc3ccccc3[nH]2)c(N2CCN(C(=O)Cn3cnc4cccnc43)[C@H](C)C2)s1 | 2.6 µM | microsomal CLint at 1 µM (in vitro; microsomes): 23 µL/min/mg
4.3 nM | – | 230 nM | O=C(Cn1cnc2cccnc21)N1CCN(c2ccccc2-c2nc3ccccc3[nH]2)CC1 | – | –
